Results from patent US5880099A, “Inositol polyphosphates and methods of using same” (The Regents of the University of California, priority 1997, dated 1999).

Experiments:
Format in all cases: cell-based, human
[1] = tested on: colonic epithelial T84 cells (calcium-mediated chloride ion secretion); test: Inhibition of calcium-mediated chloride ion secretion (Table I summary)
Procedure, shortened: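 T84 monolayers (passages 18-48, 7-10 days on permeable supports) preincubated with 100, 200 or 400 μM Bt2-Ins(3,4,5,6)P4/AM for 30 min before Ussing-chamber mounting. After another 30 min, 0.1 mM histamine added; chloride secretion recorded as voltage-clamped short circuit current (Isc).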

[2] = tested on: Ins(3,4,5,6)P4; test: Intracellular Ins(3,4,5,6)P4 level in (3H)-inositol labeled T84 cells; settings: 400 μM D,L-Bt3 -Ins(1,3,4)P3 /AM
[3] = tested on: T84 cells (carbachol-stimulated chloride ion secretion); test: Carbachol-stimulated (calcium-mediated) chloride ion secretion in T84 cells
Experimental: The cell permeable derivative D,L-Bt3 -Ins(1,3,4)P3 /AM was synthesized. Colonic epithelial T84 cells were preincubated for 30 min with 400 μM D,L-Bt3 -Ins(1,3,4)P3 /AM prior to mounting in Ussing chambers and measuring ΔIsc. At 10 min, carbachol (10^-4 M) was added to transiently stimulate calcium-mediated chloride ion secretion. Data were the average of 8 experiments with p<0.04, unpaired, two-sided student's t-test. […]

[4] = tested on: T84 cells (histamine-stimulated chloride ion secretion); test: Histamine-stimulated chloride ion secretion (short circuit current) in T84 monolayers
Experimental: Enantiomerically pure 1,2-Bt2 -Ins(3,4,5,6)P4 /AM was synthesized to determine if 1,2-Bt2 -Ins(3,4,5,6)P4 /AM mediates the uncoupling of chloride ion secretion from intracellular calcium concentrations. […] After 7-10 days of incubation on SNAP-WELLS (Corning Costar; Cambridge, Mass.), monolayers had formed tight junctions. Cell monolayers were preincubated with 100, 200 or 400 μM Bt2 -Ins(3,4,5,6)P4 /AM for 30 min prior to mounting. After an additional 30 min, 0.1 mM histamine was added and chloride ion secretion was monitored. Chloride ion secretion was measured as short circuit current (Isc) across T84 monolayers grown to confluence and mounted in Ussing chambers equipped with voltage clamps (Physiologic Instruments; San Diego, Calif.). Data was acquired and analyzed using "Acquire and Analyze" software (Physiologic Instruments).
Initial studies were directed towards understanding structural determinants of Ins(3,4,5,6)P4 responsible for the inhibitory effect on calcium-mediated chloride ion secretion. A series of cell permeable inositol polyphosphate derivatives were synthesized. These derivatives contained either one or two non-hydrolyzable chemical groups on the 1, 2 or 3 position. T84 monolayers were preincubated for 30 minutes with 200 μM of 2-Bt-1-Me-Ins(3,4,5,6)P4 /AM, Me2 -Ins(3,4,5,6)P4 /AM, Me2 -Ins(1,4,5,6)P4 /AM or 2-Bt-3-Me-Ins(1,4,5,6)P4 /AM.
Following the incubation, cells were mounted in Ussing chambers. Calcium-mediated chloride ion secretion was stimulated with histamine (10^-4 M). Control values were the response to histamine in coincubated monolayers. Data are represented as mean peak ΔIsc ±SEM, expressed as % control for 8 to 10 experiments. Significant differences were identified using the Student's two-tailed t test.

[5] = tested on: intracellular calcium; test: Intracellular calcium concentration in treated cells
Experimental: Elevation in intracellular calcium concentration leads to increased chloride ion secretion. To ensure that none of the effects of the inositol polyphosphate derivatives on chloride ion secretion were due to changes in calcium levels, the concentration of intracellular calcium was measured in cells treated with the inositol polyphosphate derivatives. […] None of the compounds tested altered intracellular calcium levels by themselves or modified levels of intracellular calcium stimulated with carbachol or thapsigargin. Therefore, the effects of inositol polyphosphate derivatives on chloride ion secretion are not due to any effect on intracellular calcium concentrations.

[6] = tested on: T84 cells (EGF induced inhibition of chloride ion secretion); test: EGF induced inhibition of carbachol-stimulated chloride ion secretion in T84 cells and its reversal; settings: EGF 16.3 nM, carbachol 100 μM
Experimental: After an additional 15 min incubation, 100 μM carbachol was added to acutely elevate intracellular calcium concentrations. Controls also were stimulated with carbachol but were not pretreated with EGF. Data are the means of duplicate measurements from a representative experiment (total of three experiments).

[7] = tested on: T84 cells (PtdInsP3-mediated decrease in chloride ion secretion); test: Reversal of PtdInsP3-mediated decrease in chloride ion secretion in T84 cells; settings: FIG. 7d, 7e
Experimental: T84 cells also were preincubated with cell permeable Ins(1,4,5,6)P4 derivatives to determine whether Ins(1,4,5,6)P4 can reverse PtdInsP3 -mediated decreases in chloride ion secretion.

[8] = tested on: T84 cells (EGF inhibition of cyclic AMP-mediated chloride ion secretion); test: EGF inhibition of cyclic AMP-mediated chloride ion secretion, reversal

Q: What does the source list for `CCCC(=O)O[C@@H]1[C@@H](OC(=O)CCC)[C@H](OP(=O)(OCOC(C)=O)OCOC(C)=O)[C@@H](OP(=O)(OCOC(C)=O)OCOC(C)=O)[C@@H](OC(=O)CCC)[C@H]1OP(=O)(OCOC(C)=O)OCOC(C)=O` (relative stereo) [D,L-Bt3 -Ins(1,3,4)P3 /AM, D,L-2,5,6-tri-O-butyryl-myo-inositol 1,3,4-trisphosphate hex (acetoxymethyl) ester]?
A: Mechanism and Inositol Polyphosphate Pathway Affected ([1]; pathway: Ins (3,4,5,6)P4): Agonist of; increase in Ins(3,4,5,6)P4 [2]: three-fold increase; peak ΔIsc ([3]; 400 μM, 30 min preincubation, carbachol 10^-4 M, 8 experiments, control 15.2±2.8, p<0.04): 7.9±1.6; inhibition at 400 µM ([3]; Homo sapiens, 0.5 h, 400 μM D,L-Bt3 -Ins(1,3,4)P3 /AM, read-out: decrease of calcium-mediated chloride ion secretion): ~50%; effect on carbachol-stimulated / calcium-mediated chloride ion secretion (in words) ([3]; T84 cells, preincubation): inhibits calcium-mediated chloride ion secretion

Q: Which “Mechanism and Inositol Polyphosphate Pathway Affected” value ([1]; pathway: PtdInsP3) does the source give for `CCCC(=O)O[C@@H]1[C@H](OC(=O)CCC)[C@@H](OP(=O)(OCOC(C)=O)OCOC(C)=O)[C@H](OP(=O)(OCOC(C)=O)OCOC(C)=O)[C@@H](OP(=O)(OCOC(C)=O)OCOC(C)=O)[C@@H]1OP(=O)(OCOC(C)=O)OCOC(C)=O` [Bt2 -Ins(1,4,5,6)P4 /AM, 2,3-di-O butyryl-myo-inositol 1,4,5,6-TKphosphate oct (acetoxymethyl) ester] here?
A: Antagonist of

Q: And the activity at 400 µM ([4]; Homo sapiens, T84, 0.5 h, 400 μM compound alone, mean ± SEM, read-out: Peak ΔIsc (% Control) after histamine (100 μM))?
A: 138 ± 20.7%

Q: What about the “effect on histamine-stimulated / calcium-mediated chloride ion secretion (in words)” value ([4]; T84 cells) of the same compound?
A: did not inhibit chloride ion secretion and in fact led to a slight increase in chloride ion secretion

Q: And the “effect on intracellular calcium (in words)” value ([5]; alone)?
A: did not elevate intracellular calcium

Q: And the “effect on calcium response to thapsigargin or carbachol (in words)” value ([5]; thapsigargin or carbachol stimulated)?
A: did not elevate intracellular calcium or the calcium response to thapsigargin

Q: What about the “effect on carbachol-stimulated chloride ion secretion / EGF induced inhibition (in words)” value [6] of the same compound?
A: enhances chloride ion secretion

Q: And the “effect on carbachol-stimulated chloride ion secretion / EGF induced inhibition (in words)” value ([6]; listed as Bt2 Ins(1,4,5,6)P4 /AM)?
A: significantly reversed EGF induced inhibition of chloride ion secretion

Q: And the “effect on PtdInsP3-mediated decrease in chloride ion secretion (in words)” value [7]?
A: enhances chloride ion secretion

Q: What about the “reversal of EGF inhibition of cyclic AMP-mediated chloride ion secretion (in words)” value [8] of the same compound?
A: did not reverse EGF inhibition of cyclic AMP-mediated chloride ion secretion
